Results taken from patent US12138334B2, “Antidandruff composition” (Conopco, Inc., priority 2019, dated 2024).
Structures can show the parent of a compound that is named as a salt.

What was measured:
[1] = test system: Malassezia furfur 14521; assay: Antifungal activity on M. furfur (resazurin viability, MIC and ΣFIC); assay type: cell-based; conditions: M. furfur 14521, YPD broth, 30° C., 72 hours, resazurin colour
Protocol: The samples as given in Table 1 were subjected to their anti fungal efficacy on M. furfur as described hereinafter.
The test organism used in the assay is Malassezia furfur 14521. The M. furfur were revived from glycerol stock in YPD agar plates (yeast extract peptone dextrose media) containing 1% corn oil. The composition of YPD is yeast extract:10 g/litre, dextrose 20 g/litre, Peptone 20 g/litre and agarose 0.15%. The plates were incubated at 30° C. for 72 hours for forming fungal colonies. A suspension culture of M. furfur was made using the colonies from plates in YPD broth. The optical density of the suspension culture was adjusted to 0.6 using spectrophotometer. This suspension was diluted in the ratio of 1:10 using YPD broth and 100 μl of this culture was added into each well of 96 well test plate. A stock solution of 40× strength of piroctone olamine was prepared for each of the concentrations tested eg for 0.0.001% test concentration of piroctone olamine a stock of 0.04% was prepared in DMSO (dimethyl sulphoxide). 5 μl of piroctone olamine was added to 100 μl of M. furfur culture. A stock solution of 4× strength of itaconic acid or sodium benzoate was prepared for each of the concentrations tested e.g. for 0.0.001% test concentration of itaconic acid or sodium benzote a stock of 0.004% was prepared in YPD broth. 50 μl of itaconic acid or sodium benzoate was added to 100 μl of M. furfur culture. In wells containing only one test ingredient, (itaconic acid or sodium benzoate only) 50 μl of test ingredient was added to 100 μl of fungal culture and then made up the volume to 200 μl with YPD broth. In wells containing only piroctone olamine 5 μl of piroctone olamine was added to 100 μl of fungal culture and then made up the volume to 200 μl with YPD broth. […] The anti-fungal efficacy of the ingredient or combination of ingredients is calculated based on the colour development. […]
The combinations of test ingredients with synergistic anti-fungal benefits were evaluated using ΣFIC method. The ΣFIC of the combinations were calculated using the following formula: […]

[2] = cited from earlier work

| Compound | Minimum inhibitory concentration (MIC) [1] | solubility in 10% ethanol in water ([2]; 10% ethanol in water) | solubility in solution containing surfactants in water or in 1%-10% ethanol ([2]; solution containing surfactants in water or in 1%-10% ethanol) |
| --- | --- | --- | --- |
| O=C([O-])c1ccccc1.[Na+] [Sodium benzoate] | 0.5 wt % | – | – |
| C=C(CC(=O)OC)C(=O)OC [Dimethyl itaconate] | 0.5 wt % | – | – |
| Cc1cc(CC(C)CC(C)(C)C)n(O)c(=O)c1 (centres unmarked) [Piroctone olamine, 1-Hydroxy-4-methyl-6-(2,4,4-trimethylpentyl)-2-(1H)pyridinone,2-aminoethanol salt] | 0.002 wt % | soluble | soluble |
